Assay results reported in patent US20030049697A1, “Family of mechanosensitive human potassium channels activated by polyunsaturated fatty acids and their use” (CENTRE NATIONAL DE LA RECHERCHE SCIENTIFIQUE, C.N.R.S., priority 2000, published 2003).
Values belong to the compound of their own block, whether it stands above or below them.

Experiments:
[1] = biological target: T1, hTRAAK (Homo sapiens, UniProt Q9NYG8); assay: Whole cell configuration electrophysiology of hTRAAK current in transfected COS cells; format: cell-based
T1 construct: expressed in transfected cells; host or cells: COS-7 cells, transient DEAE-dextran transfection of pIRES-CD8.hTRAAK
T1 sequence (Q9NYG8 1-393): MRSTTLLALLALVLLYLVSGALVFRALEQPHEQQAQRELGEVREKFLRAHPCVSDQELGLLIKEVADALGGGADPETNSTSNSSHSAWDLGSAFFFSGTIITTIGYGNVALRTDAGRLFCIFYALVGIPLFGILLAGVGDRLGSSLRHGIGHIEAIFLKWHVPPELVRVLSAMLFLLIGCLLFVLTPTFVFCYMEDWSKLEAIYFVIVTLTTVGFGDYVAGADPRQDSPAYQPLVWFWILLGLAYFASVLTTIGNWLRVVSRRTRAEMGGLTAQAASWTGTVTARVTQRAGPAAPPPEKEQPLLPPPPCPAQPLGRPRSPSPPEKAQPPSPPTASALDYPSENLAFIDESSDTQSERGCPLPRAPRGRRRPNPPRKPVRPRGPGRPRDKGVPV
Method: Electrophysiological experiments were performed in COS cells transfected in a temporary manner.
It has been shown that certain members of the family of K^+ channels with two P domains (TREK-1 and TASK-1) are opened by volatile general anesthetics (Patel et al., 1999). We, therefore, also investigated the effect of chloroform on hTRAAK.
In fact, the opening of the channel is mediated by a deformation of the membrane (Maingret et al., 1999 (a); Patel et al., 1998).
The COS-7 cells were maintained in Eagle medium as modified by Dulbecco supplemented with 10% fetal calf's serum. The plasmid pIRES-cD8-hTRAAK was transfected using the conventional DEAE dextran procedure. The positive cells were visualized 48 h after transfection using the method of beads covered by the anti-CD8 antibody (Maingret et al., 1999 (a); Maingret et al., 1999 (b)).
For the experiments on whole cells and the outside-in experiments, the pipette solution (INT) contained 150 mM KCl, […], 5 mM EGTA and 10 mM HEPES, pH adjusted with KOH. The bath solution (EXT) contained 150 mM NaCl, 5 mM KCl, 3 mM MgCl2, 1 mM CaCl2 and 10 mM HEPES, pH 7.4 adjusted with NaOH. For the inside-out experiments, the solution in the pipette was EXT and the bath solution was INT. The EXT solution rich in K^+ contained 150 mM KCl in place of 150 mM NaCl. To study the selectivity of the ions, the relationships between the current and the voltage were obtained at different ext. K^+ concentrations. For each concentration, NaCl was replaced in the EXT solution by equimolar KCl.
All of the products were obtained from Sigma. The fatty acids were dissolved in ethanol at the concentration of 100 mM, put under argon and stored at […] for one week.

[2] = biological target: T1, hTRAAK; assay: Excised patch (outside-out configuration) recording of hTRAAK in transfected COS cells; format: cell-based
Method: Under physiological conditions, the current induced by AA is outward rectifying and changes direction at […], n=7 (FIG. 5A). When the exterior Na^+ is replaced by K^+, the current becomes linear and the direction change potential is −0.6±0.8 mV, n=7 (FIG. 5B). hTRAAK is also activated by the polyunsaturated acid decosahexaenoate (10 μM, n=3), but is insensitive to the saturated fatty acids myristate, palmitate, stearate and arachinate (10 μM, n=6 to 8). […] The stimulation by AA of hTRAAK remains then when the patch is excised (FIG. 5C). The current induced by AA observed in an outside-out configuration is outward rectifying and changes direction at the reverse potential of K^+ (FIG. 5C, box). […] In fact, the opening of the channel is mediated by a deformation of the membrane (Maingret et al., 1999 (a); Patel et al., 1998). FIG. 5D illustrates the mechanical sensitivity of hTRAAK. In the reverse patch configuration, the activity of the channel is almost absent at atmospheric pressure. Application of negative pressure opens the channels in a dose-dependent manner.
The COS-7 cells were maintained in Eagle medium as modified by Dulbecco supplemented with 10% fetal calf's serum. The plasmid pIRES-cD8-hTRAAK was transfected using the conventional DEAE dextran procedure. […]

sensitivity of hTRAAK to K+ channel blocking agent ([1]; 100 μm, whole cell configuration): insensitive
Compound: C=C[C@H]1C[N@@]2CC[C@H]1C[C@@H]2[C@@H](O)c1ccnc2ccc(OC)cc12 [quinidine]

sensitivity of hTRAAK to K+ channel blocking agent ([1]; 10 μM, whole cell configuration): insensitive
Compound: COc1ccc(Cl)cc1C(=O)NCCc1ccc(S(=O)(=O)NC(=O)NC2CCCCC2)cc1 [glibenclamide]

stimulation of hTRAAK when the patch is excised [2]: remains
potentiation of human TRAAK activity ([1]; 10 μm, whole cell configuration, at 0 mV, n=19): 630±101%
reversibility of activation ([1]; by means of washing): completely reversible
direction change potential of the induced current ([1]; exterior Na+ replaced by K+, n=7): −0.6±0.8 mV
potential at which the induced current changes direction ([1]; physiological conditions, n=7): -80.6 ± 0.9 mV
Compound: CCCCC/C=C\C/C=C\C/C=C\C/C=C\CCCC(=O)O [arachidonic acid]

Compound: ClC(Cl)Cl [chloroform]
effect on the channel's activity ([1]; 0.8 mM, n=8): no effect

Compound: CC[N+](CC)(CC)CC [TEA]
sensitivity of hTRAAK to K+ channel blocking agent ([1]; 10 mM, whole cell configuration): insensitive

Compound: Nc1ccncc1 [4AP]
sensitivity of hTRAAK to K+ channel blocking agent ([1]; 3 mM, whole cell configuration): insensitive

activation of hTRAAK by polyunsaturated fatty acid ([1]; 10 μM, n=3): activated
Compound: CC/C=C\C/C=C\C/C=C\C/C=C\C/C=C\C/C=C\CCC(=O)O [decosahexaenoate]

activation of hTRAAK ([1]; no concentration or data printed): activated
Compound: Nc1nc2ccc(OC(F)(F)F)cc2s1 [riluzole]

Compound: [Ba+2] [barium]
sensitivity of hTRAAK to K+ channel blocking agent ([1]; 1 mM, whole cell configuration): insensitive

sensitivity of hTRAAK to saturated fatty acids ([1]; 10 μM, n=6 to 8): insensitive
Compound: CCCCCCCCCCCCCCCCCCCC(=O)O [arachinate]
